Measured values reported in the PolyMetriX glass transition set.
± gives the standard deviation of the reports.

Going from `*/C=C/c1ccc2c(c1)C(CCCCCC)(CCCCCC)c1cc(/C=C/c3nc(*)c(C#N)c(/C=C/c4ccc(N(c5ccccc5)c5ccccc5)cc4)c3C#N)ccc1-2` (repeat unit) to `*c1ccc(-c2ccc(-c3cc(-c4ccccc4)c4cc(-c5ccc6nc(*)cc(-c7ccccc7)c6c5)ccc4n3)cc2)cc1` (repeat unit), the glass transition temperature rises from 178.00 °C to 360.00 °C.

First: *CCC(=O)Nc1ccc(Cc2ccc(NC(=O)CCN3C(=O)c4ccc(C(=O)c5ccc6c(c5)C(=O)N(*)C6=O)cc4C3=O)cc2)cc1 (repeat unit)
Second: *CCCCCCCCCCC(=O)Nc1ccc(Oc2cccc(NC(=O)CCCCCCCCCCN3C(=O)c4ccc(C(=O)c5ccc6c(c5)C(=O)N(*)C6=O)cc4C3=O)c2)cc1 (repeat unit)
The glass transition temperature of the first is higher: 221.00 °C for the first, 126.00 °C for the second.

Compared with `*CC(c1ccccc1)C1C(=O)N(CCCOc2ccc(-c3ccc(C#N)cc3)cc2)C(=O)C1*` (repeat unit), `*CC(*)OCCOc1ccc(/N=N/c2ccc(C#N)cc2)cc1` (repeat unit) is lower in glass transition temperature: 130.00 °C for the first, 61.00 °C for the second.

Going from `*C(=O)Oc1ccc(OC(=O)c2ccc3c(c2)C(=O)N(c2ccc(Oc4ccc(N5C(=O)c6ccc(*)cc6C5=O)cc4)cc2)C3=O)cc1` (repeat unit) to `*C(=O)c1ccc2c(c1)C(=O)N(c1ccc(OCCOc3ccc(N4C(=O)c5ccc(*)cc5C4=O)cc3)cc1)C2=O` (repeat unit), the glass transition temperature falls from 270.00 °C to 246.00 °C.

Compared with `*CCc1ccc(*)c(Cl)c1` (repeat unit), `*CCc1cccc(*)c1` (repeat unit) is lower in glass transition temperature: 75.00 °C for the first, 9.00 °C for the second.

First: *CCCCCOC(=O)CCCCC(=O)O* (repeat unit)
Second: *CCOCCOC(=O)CCCCCCCC(=O)O* (repeat unit)
The glass transition temperature of the first is higher: -69.00 °C for the first, -71.00 °C for the second.

First: *O[Si](*)(C)CCCOc1ccc2c(c1)c1cc(-c3ccc4c(c3)c3ccccc3n4CC(CC)CCCC)ccc1n2CC(CC)CCCC (repeat unit)
Second: *CC(*)(C)C(=O)OCCn1c2ccccc2c2cc(/N=N/c3ccc([N+](=O)[O-])cc3[N+](=O)[O-])ccc21 (repeat unit)
The glass transition temperature of the first is lower: 129.00 °C for the first, 182.00 °C for the second.

Going from `*CC(SS*)c1ccccc1` (repeat unit) to `*CC(*)Cc1cccc(C)c1` (repeat unit), the glass transition temperature rises from 4.80 °C to 40.00 °C.

Compared with `*O[Si](C)(C)c1cc(OCCOCc2ccccc2)c([Si](*)(C)C)cc1OCCOCc1ccccc1` (repeat unit), `*CC(*)(C)C(=O)OCCCCCCOc1ccc2cc(C(=O)Oc3ccccc3)ccc2c1` (repeat unit) is lower in glass transition temperature: 76.00 °C for the first, 39.00 °C for the second.

Going from `*CC(C)(C)CS(=O)(=O)CC(C)(C)COC(=O)NCCCCCCNC(=O)O*` (repeat unit) to `*CCOCCOC(=O)C(CCCCCCCCC)C(=O)O*` (repeat unit), the glass transition temperature falls from 30.00 °C to -59.00 °C.

Compared with `*c1cccc(P(=O)(c2ccccc2)c2cccc(-n3c(=O)c4c(-c5ccc(C(F)(F)F)cc5)c5c(=O)n(*)c(=O)c5c(-c5ccc(C(F)(F)F)cc5)c4c3=O)c2)c1` (repeat unit), `*c1ccc2c(c1)C(=O)N(c1cccc(P(=O)(c3ccc(Oc4ccc(C56CC7CC(CC(C7)C5)C6)cc4)cc3)c3cccc(N4C(=O)c5ccc(C(*)(C(F)(F)F)C(F)(F)F)cc5C4=O)c3)c1)C2=O` (repeat unit) is lower in glass transition temperature: 334.00 °C for the first, 298.00 °C for the second.

Compared with `*CCOP(=O)(/N=N/c1ccc(COC(=O)c2cc(C(=O)OCc3ccc(/N=N/P(=O)(O*)OC)cc3)cc(C(C)(C)C)c2)cc1)OC` (repeat unit), `*Nc1ccc(C(=O)c2ccc(NC(=O)c3cc(C(*)=O)cc(C(C)(C)C)c3)cc2)cc1` (repeat unit) is higher in glass transition temperature: 105.00 °C for the first, 271.00 °C for the second.

Compared with `*/C=C/c1ccc(OC(=O)CCCCCCCCC(=O)Oc2cccc(-c3nnc(*)s3)c2)cc1` (repeat unit), `*Oc1cccc(NC(=O)CCCCCCCCCC(=O)Nc2ccc(*)cc2)c1` (repeat unit) is higher in glass transition temperature: 37.00 °C for the first, 110.00 °C for the second.

Going from `*OC(=O)OCC(O)C(O)COC(=O)OC1COC2C(*)COC12` (repeat unit) to `*CCCCOC(=O)C1CCC(C(=O)O*)CC1` (repeat unit), the glass transition temperature falls from 78.50 °C to -10.50 °C.

First: *c1ccc(Oc2ccc(C(=O)c3cccc(C(=O)c4ccc(Oc5ccc(N6C(=O)c7ccc(Oc8ccc9c(c8)C(=O)N(*)C9=O)cc7C6=O)cc5)cc4)n3)cc2)cc1 (repeat unit)
Second: *c1ccc(N2C(=O)c3ccc(Oc4ccc5c(c4)C(=O)N(*)C5=O)cc3C2=O)cc1 (repeat unit)
The glass transition temperature of the first is lower: 208.60 °C for the first, 355.8 ± 42 °C for the second.

Compared with `*N=P(*)(OCCOCCOCCOP1(OCCOCCOC)=NP(OCCOCCOC)(OCCOCCOC)=NP(OCCOCCOC)(OCCOCCOC)=N1)OCCOCCOCCOP1(OCCOCCOC)=NP(OCCOCCOC)(OCCOCCOC)=NP(OCCOCCOC)(OCCOCCOC)=N1` (repeat unit), `*CCCCCCOC(=O)CCCCCCCCCCCCCCCCCCC(=O)OCCCCCCN1C(=O)c2ccc(S(=O)(=O)c3ccc4c(c3)C(=O)N(*)C4=O)cc2C1=O` (repeat unit) is higher in glass transition temperature: -38.00 °C for the first, 19.00 °C for the second.

Going from `*c1cc(CC(=O)OCCN(CC)c2ccc(/N=N/c3ccc([N+](=O)[O-])cc3)cc2)c(*)s1` (repeat unit) to `*OC(COC(=O)c1ccc(C)cc1C(*)=O)COc1ccc(/N=N/c2ccc(C#N)cc2)cc1` (repeat unit), the glass transition temperature rises from 102.00 °C to 124.00 °C.

Compared with `*C(=O)CCCCCCCCC(=O)NC1CCCCN(*)C1` (repeat unit), `*CCCCCCCCCCCOC(=O)c1ccc(-c2ccc(C(=O)O*)cc2)cc1` (repeat unit) is higher in glass transition temperature: -46.50 °C for the first, 49.00 °C for the second.

Going from `*CC(*)(C)C(=O)OCC#C` (repeat unit) to `*CC(*)(C)C(=O)OCCOCCO` (repeat unit), the glass transition temperature falls from 58.00 °C to 20.00 °C.

First: *c1ccc(C(=O)Nc2ccc(-n3c(=O)c4cc5c(=O)n(*)c(=O)c5cc4c3=O)cc2C(=O)OCC)cc1 (repeat unit)
Second: *c1ccc(-c2ccc(-n3c(=O)c4cc5c(=O)n(*)c(=O)c5cc4c3=O)cc2C)c(C)c1 (repeat unit)
The glass transition temperature of the first is lower: 340.00 °C for the first, 369.2 ± 6.7 °C for the second.

Going from `*c1ccc2c(c1)C(=O)N(c1ccc(OCCOCCOc3ccc(N4C(=O)c5ccc(C(*)(C(F)(F)F)C(F)(F)F)cc5C4=O)cc3)cc1)C2=O` (repeat unit) to `*c1ccc2c(c1)C(=O)N(c1ccc(-c3ccc(Oc4ccc5c(c4)C(C)(c4ccc(Oc6ccc(-c7ccc(N8C(=O)c9ccc(C(*)(C(F)(F)F)C(F)(F)F)cc9C8=O)cc7)cc6C(F)(F)F)cc4)CC5(C)C)c(C(F)(F)F)c3)cc1)C2=O` (repeat unit), the glass transition temperature rises from 187.50 °C to 262.00 °C.

Going from `*O[Si](*)(C)CCCOc1ccc(C(=O)Oc2ccc(C#N)cc2)cc1` (repeat unit) to `*CC(*)(C)C(=O)Oc1ccc(C(=O)Oc2ccccc2)cc1` (repeat unit), the glass transition temperature rises from 57.00 °C to 99.00 °C.

Going from `*C(=O)Nc1ccc(S(=O)(=O)c2ccc(NC(=O)c3ccc4c(c3)C(=O)N(c3cc(-c5nc6ccccc6s5)cc(N5C(=O)c6ccc(*)cc6C5=O)c3)C4=O)cc2)cc1` (repeat unit) to `*c1ccc(Oc2ccc(-c3nc4cc(Oc5ccc(NC(=O)c6cc(C(=O)Nc7ccc(Oc8ccc9nc(-c%10ccccc%10)c(*)nc9c8)cc7)cc(N7C(=O)c8ccccc8C7=O)c6)cc5)ccc4nc3-c3ccccc3)cc2)cc1` (repeat unit), the glass transition temperature falls from 357.00 °C to 260.00 °C.

Compared with `*CC(*)c1ccc(COCCOCC)cc1` (repeat unit), `*Oc1ccc(CC(NC(=O)Cc2ccc(OC(=O)CCCC(*)=O)cc2)C(=O)OCC)cc1` (repeat unit) is higher in glass transition temperature: 0.00 °C for the first, 65.00 °C for the second.

Going from `*/C=C(/*)C(CCC)[Si](C)(C)CCCCCC` (repeat unit) to `*CCCN(*)C(=O)CCCCC` (repeat unit), the glass transition temperature falls from 40.00 °C to -16.00 °C.

First: *CC(COc1ccc(C(C)(C)c2ccc(O*)cc2)cc1)OC(=O)c1ccccc1 (repeat unit)
Second: *Oc1ccc(C(C)(C)c2ccc(OC(=O)CCCCC(*)=O)cc2)cc1 (repeat unit)
The glass transition temperature of the first is higher: 65.00 °C for the first, 54.00 °C for the second.

Going from `*OC(=O)c1ccc(C2(C)CC(C)(C)c3ccc(C(=O)Oc4ccc5c(c4)Oc4cc(*)ccc4C5(C)C)cc32)cc1` (repeat unit) to `*Oc1ccc(C2(c3ccc(OC(=O)CCCC(*)=O)cc3)c3cc(N(C)C)ccc3-c3ccc([N+](=O)[O-])cc32)cc1` (repeat unit), the glass transition temperature falls from 297.00 °C to 181.00 °C.

Compared with `*CC(*)(C#N)C(=O)OC` (repeat unit), `*CC(C)(/C=C(/*)C)C(=O)OC` (repeat unit) is lower in glass transition temperature: 147.50 °C for the first, 24.00 °C for the second.

First: *c1ccc2c(c1)C(=O)N(c1c(C)cc(C(c3ccccc3)(c3cc(C)c(N4C(=O)c5ccc(C(*)(C(F)(F)F)C(F)(F)F)cc5C4=O)c(C(C)C)c3)C(F)(F)F)cc1C(C)C)C2=O (repeat unit)
Second: *c1ccc(-c2nc3cc(Oc4ccc5nc(-c6ccccc6)c(*)nc5c4)ccc3nc2-c2ccccc2)cc1 (repeat unit)
The glass transition temperature of the first is lower: 289.00 °C for the first, 304.00 °C for the second.

Compared with `*CCCCCCCCOc1cccc(NC(=O)c2ccc(C(=O)Nc3cccc(O*)c3)cc2)c1` (repeat unit), `*Oc1ccc(NC(=C(C#N)C#N)c2ccc(-c3ccc(-c4ccc(C(Nc5ccc(*)cc5)=C(C#N)C#N)cc4)cc3)cc2)cc1` (repeat unit) is higher in glass transition temperature: 122.00 °C for the first, 240.00 °C for the second.

Going from `*CCCCCCCCCCc1ccc(-c2c(-c3ccccc3)cc(-c3ccc(-c4cc(-c5ccccc5)c(-c5ccc(*)cc5)c(-c5ccccc5)c4-c4ccccc4)cc3)c(-c3ccccc3)c2-c2ccccc2)cc1` (repeat unit) to `*c1ccc(Oc2ccc(-c3nc4cc(-c5ccc6nc(-c7ccccc7)c(*)nc6c5)ccc4nc3-c3ccccc3)cc2)cc1` (repeat unit), the glass transition temperature rises from 235.00 °C to 300.00 °C.

Going from `*Oc1ccc(C(C)(C)c2ccc(OC(=O)OCC3CCC(COC(*)=O)CC3)cc2)cc1` (repeat unit) to `*OP(=O)(Oc1ccc([N+](=O)[O-])cc1)Oc1ccc(S(=O)(=O)c2ccc(*)cc2)cc1` (repeat unit), the glass transition temperature rises from 90.40 °C to 114.00 °C.

For `*SC1CCCC(*)C1` (repeat unit), the glass transition temperature was -52.00 °C.
